ChEMBL document CHEMBL4196033, “Potent hydrazone derivatives targeting esophageal cancer cells” (Eur J Med Chem, 2018)
Active and inactive are the calls of the source. The calls are words filed in the database; no cut-off is given here.

How the values were obtained:
[1] = system: EC9706; assay: Cell cycle arrest in human EC9706 cells assessed as increase in G0/G1 phase population at 2 uM after 24 hrs by propidium iodide staining based flow cytometry relative to control; type: functional
[2] = system: EC9706; assay: Induction of apoptosis in human EC9706 cells assessed as increase in cleaved caspase-3 protein expression after 48 hrs by Western blot analysis; type: functional, cell-based
[3] = system: GES1; assay: Antiproliferative activity against human GES-1 cells after 24 hrs by MTT assay; type: cell-based; settings: GES1, 24 h
[4] = system: EC9706; assay: Cell cycle arrest in human EC9706 cells assessed as increase in G0/G1 phase population at 8 uM after 24 hrs by propidium iodide staining based flow cytometry relative to control; type: functional
[5] = system: EC9706; assay: Induction of morphological changes in human EC9706 cells assessed as cell rounding after 48 hrs by Hoechst 33342 staining based fluorescence microscopic method; type: functional
[6] = system: ECa-109 cell line; assay: Induction of apoptosis in human EC109 cells assessed as decrease in Bid protein expression at 2 to 8 uM after 48 hrs by Western blot analysis; type: functional, cell-based
[7] = system: EC9706; assay: Cell cycle arrest in human EC9706 cells assessed as increase in G0/G1 phase population at 4 uM after 24 hrs by propidium iodide staining based flow cytometry relative to control; type: functional
[8] = system: EC9706; assay: Induction of apoptosis in human EC9706 cells assessed as early apoptotic cells at 4 uM after 48 hrs in presence of caspase inhibitor Z-VAD-FMK by Annexin V-FITC/propidium iodide staining based flow cytometry (reference value: 0.33%); type: functional
[9] = system: GES1; assay: Antiproliferative activity against human GES-1 cells after 48 hrs by MTT assay; type: cell-based; settings: GES1, 48 h
[10] = system: Mus musculus; assay: Acute toxicity in C57BL/6 mouse assessed as mortality at 2 g/kg, ig measured for 2 weeks; type: organism-based; settings: in vivo, po, 2000 mg/kg, 336 h
[11] = system: ECa-109 cell line; assay: Induction of ROS generation in human EC109 cells at 2 to 4 uM after 24 hrs in presence of anti-oxidant NAC by DCFH-DA staining based flow cytometry; type: functional, cell-based
[12] = system: ECa-109 cell line; assay: Effect on Prxs-2 protein expression in human EC109 cells at 2 to 8 uM after 48 hrs by Western blot analysis; type: functional, cell-based
[13] = system: Mus musculus; assay: Acute toxicity in C57BL/6 mouse assessed as histopathological changes in kidney at 2 g/kg, ig measured for 2 weeks by hematoxylin and eosin staining based microscopic method; type: organism-based; settings: in vivo, po, 2000 mg/kg, 336 h
[14] = system: ECa-109 cell line; assay: Induction of ROS generation in human EC109 cells at 8 uM after 24 hrs by DCFH-DA staining based flow cytometry relative to control; type: functional
[15] = system: EC9706; assay: Induction of apoptosis in human EC9706 cells assessed as increase in tBid protein expression at 2 to 8 uM after 48 hrs by Western blot analysis; type: functional, cell-based
[16] = system: EC9706; assay: Induction of apoptosis in human EC9706 cells assessed as early apoptotic cells at 8 uM after 48 hrs in presence of caspase inhibitor Z-VAD-FMK by Annexin V-FITC/propidium iodide staining based flow cytometry (reference value: 0.33%); type: functional
[17] = system: ECa-109 cell line; assay: Upregulation of p27 protein expression in human EC109 cells at 4 uM after 24 to 48 hrs by Western blot analysis relative to control; type: functional
[18] = system: EC9706; assay: Induction of apoptosis in human EC9706 cells assessed as increase in cleaved PARP protein expression after 48 hrs by Western blot analysis; type: functional, cell-based
[19] = system: ECa-109 cell line; assay: Anticlonogenic activity against human EC109 cells after 7 days by crystal violet staining based assay; type: functional, cell-based
[20] = system: EC9706; assay: Induction of ROS generation in human EC9706 cells at 2 uM after 24 hrs by DCFH-DA staining based flow cytometry relative to control; type: functional
[21] = system: ECa-109 cell line; assay: Induction of apoptosis in human EC109 cells assessed as live cells at 8 uM after 48 hrs by Annexin V-FITC/propidium iodide staining based flow cytometry (reference value: 95.2 to 99%); type: functional
[22] = system: EC9706; assay: Induction of apoptosis in human EC9706 cells assessed as late apoptotic cells at 2 uM after 48 hrs by Annexin V-FITC/propidium iodide staining based flow cytometry (reference value: 1.29 to 1.99%); type: functional
[23] = system: ECa-109 cell line; assay: Effect on Prxs-4 protein expression in human EC109 cells at 2 to 8 uM after 48 hrs by Western blot analysis; type: functional, cell-based
[24] = system: EC9706; assay: Upregulation of p27 protein expression in human EC9706 cells at 4 uM after 24 to 48 hrs by Western blot analysis relative to control; type: functional
[25] = system: Mus musculus; assay: Acute toxicity in C57BL/6 mouse assessed as histopathological changes in liver at 2 g/kg, ig measured for 2 weeks by hematoxylin and eosin staining based microscopic method; type: organism-based; settings: in vivo, po, 2000 mg/kg, 336 h
[26] = system: EC9706; assay: Induction of apoptosis in human EC9706 cells assessed as necrotic cells at 4 uM after 48 hrs by Annexin V-FITC/propidium iodide staining based flow cytometry (reference value: 1.1 to 1.31%); type: functional
[27] = system: Mus musculus; assay: Acute toxicity in C57BL/6 mouse assessed as histopathological changes in lung at 2 g/kg, ig measured for 2 weeks by hematoxylin and eosin staining based microscopic method; type: organism-based; settings: in vivo, po, 2000 mg/kg, 336 h
[28] = system: ECa-109 cell line; assay: Effect on Prxs-3 protein expression in human EC109 cells at 2 to 8 uM after 48 hrs by Western blot analysis; type: functional, cell-based
[29] = system: ECa-109 cell line; assay: Upregulation of p27 protein expression in human EC109 cells at 8 uM after 24 to 48 hrs by Western blot analysis relative to control; type: functional
[30] = system: EC9706; assay: Induction of apoptosis in human EC9706 cells at 2 to 4 uM after 48 hrs in presence of anti-oxidant NAC by Annexin V-FITC/propidium iodide staining based flow cytometry; type: functional, cell-based
[31] = system: EC9706; assay: Antiproliferative activity against human EC9706 cells after 48 hrs by MTT assay; type: functional, cell-based; settings: EC9706, 48 h
[32] = system: ECa-109 cell line; assay: Induction of apoptosis in human EC109 cells assessed as necrotic cells at 4 uM after 48 hrs by Annexin V-FITC/propidium iodide staining based flow cytometry (reference value: 0.74 to 1.18%); type: functional
[33] = system: ECa-109 cell line; assay: Induction of apoptosis in human EC109 cells assessed as necrotic cells at 8 uM after 48 hrs by Annexin V-FITC/propidium iodide staining based flow cytometry (reference value: 0.74 to 1.18%); type: functional
[34] = system: ECa-109 cell line; assay: Antiproliferative activity against human EC109 cells after 24 hrs by MTT assay; type: functional, cell-based; settings: ECa-109, 24 h
[35] = system: Mus musculus; assay: Acute toxicity in C57BL/6 mouse assessed as change in physical phenotype at 2 g/kg, ig measured for 2 weeks; type: organism-based; settings: in vivo, po, 2000 mg/kg, 336 h
[36] = system: EC9706; assay: Antiproliferative activity against human EC9706 cells after 72 hrs by MTT assay; type: functional, cell-based; settings: EC9706, 72 h
[37] = system: EC9706; assay: Induction of apoptosis in human EC9706 cells assessed as decrease in Bcl2 protein expression after 48 hrs by Western blot analysis; type: functional, cell-based
[38] = system: EC9706; assay: Induction of apoptosis in human EC9706 cells assessed as late apoptotic cells at 8 uM after 48 hrs by Annexin V-FITC/propidium iodide staining based flow cytometry (reference value: 1.29 to 1.99%); type: functional
[39] = system: EC9706; assay: Induction of apoptosis in human EC9706 cells assessed as live cells at 4 uM after 48 hrs by Annexin V-FITC/propidium iodide staining based flow cytometry (reference value: 85.5 to 96%); type: functional

COc1ccc(/C=N/NC(=O)c2cccc(S(=O)(=O)N3CCOCC3)c2)c(O)c1
fold change (FC) [1]: 1.07
Activity [2]: Dose-dependent effect
IC50 [3]: > 80 µM
fold change (FC) [4]: 1.27
Activity [5]: Dose-dependent effect
Activity [6]: Active
fold change (FC) [7]: 1.22
Activity [8]: 13.3%
IC50 [9]: > 80 µM
Activity [10]: Non-Toxic
Activity [11]: inactive
Activity [12]: Active
Activity [13]: Non-Toxic
fold change (FC) [14]: 2.21
Activity [15]: Active
Activity [16]: 16.4%
fold change (FC) [17]: 1.4
Activity [18]: Dose-dependent effect
Activity [19]: Active
fold change (FC) [20]: 1.16
Activity [21]: 25.2 - 26.7%
Activity [22]: 6.25%
Activity [23]: Active
fold change (FC) [24]: 1.4
Activity [25]: Non-Toxic
Activity [26]: 0.48 - 16.1%
Activity [27]: Non-Toxic
Activity [28]: Active
fold change (FC) [29]: 1.9
Activity [30]: inactive
IC50 [31]: 7.51 µM
Activity [32]: 4.45 - 11.3%
Activity [33]: 2.23 - 13%
IC50 [34]: > 20 µM
Activity [35]: Non-Toxic
IC50 [36]: 1.09 µM
Activity [37]: Dose-dependent effect
Activity [38]: 25 - 33.1%
Activity [39]: 34.2 - 61.2%
